{"source": "patent US20080299563A1", "about": "“HUMAN MAP2 GENE PROMOTER” (priority 2007, published 2008)", "key": {"MAP2 promoter [1]": {"test_system": "MAP2 promoter", "experiment": "Notch1 inhibition / HES1 knockdown, phMAP2-2 luciferase assay in WM35 primary melanoma cells", "format": "cell-based, human", "conditions": "DAPT 1 or 2 μM, 0.6 μg HES1shRNA", "experimental": "(§1) Transient transfection and luciferase assays: Transient transfections with various promoter constructs were performed using Lipofectamine (Invitrogen, Carlsbad, Calif.) according to the manufacturer's instructions. Cells in 24- or 6-well tissue culture dishes, in triplicates, were transfected with 0.6 or 3 μg, respectively, of empty vector pGL3 or promoter-reporter constructs (phMAP2-1, phMAP2-2, phMAP2-3 and phMAP2-4) and 0.07 or 0.5 μg Renilla luciferase plasmid pRL. In co-transfection experiments, different amounts of NeuroD and Hes1 expression plasmids were added. For Notch1 inhibition and HES1 knockdown experiments, cells were either pre-treated with indicated amount of γ-secretase inhibitor-DAPT (Calbiochem, La Jolla, Calif.) and/or transfected with indicated amount of lentiviral HES1shRNA plasmid (The RNAi Consortium collection, a library of short hairpin DNAs cloned in pLKO.1 lentiviral vector; Open biosystem, Huntsville, Ala.) 1 day before transfection with MAP2 promoter constructs. After 48 h of transfection, cells were washed with pre-chilled PBS and lysed in passive lysis buffer (Dual Luciferase kit, Promega). Firefly luciferase and Renilla luciferase activities in the cell lysates were measured according to the manufacturer's instructions using TD 20/20-luminometer (Turner Biosystems, Sunnyvale, Calif.). […]"}, "MAP2 promoter [2]": {"test_system": "MAP2 promoter", "experiment": "Notch1 inhibition / HES1 knockdown, phMAP2-2 luciferase assay in 451Lu metastatic melanoma cells", "format": "cell-based, human", "conditions": "DAPT 1 or 2 μM, 0.6 μg HES1shRNA", "experimental": "as §1"}}}
{"smiles": "C[C@H](NC(=O)Cc1cc(F)cc(F)c1)C(=O)N[C@H](C(=O)OC(C)(C)C)c1ccccc1", "note": "[DAPT]", "values": [{"measurement": "MAP2 promoter activity (phMAP2-2 luciferase)", "setting": "MAP2 promoter [1]", "value": "dose-dependent increase"}, {"measurement": "MAP2 promoter activity (phMAP2-2 luciferase)", "setting": "MAP2 promoter [2]", "value": "not sufficient to activate MAP2 promoter"}]}
